Here are results for eight molecules from patent US11566260B2, “Potentiating agents for protecting plants from fungal infections” (UNIVERSITE D'ANGERS, priority 2012, dated 2023).

Common to all, as to format: cell-based
Assay [1] has as its system Alternaria brassicicola. Nature of the assay: Test B: potentiating effect with a plant defense molecule on growth of Alternaria brassicicola. The note with it: Alternaria brassicicola. The protocol:
(§1) Test B: • 1) Determining a non-fungicidal amount of said agent, preferably according to Test A; • 2) Determining a non-fungicidal amount of a plant defense molecule, preferably according to Test A; • 3) Measuring growth of fungal conidia in a medium comprising a combination of a non-fungicidal amount of the agent, as determined in step 1, and a non-fungicidal amount of the plant defense molecule, as determined in step 2. In one embodiment, the growth is measured as follows: Suspensions of fungal conidia (starting material: 10^5 conidia/mL) are cultured in liquid medium, such as, for example, 300 μL of PBD medium, on microplate wells at 25° C. with shaking at 175 rpm for 5 minutes every 10 minutes. Non-fungicidal concentrations of the tested agent and of the tested plant defense molecule are added on wells, and fungal growth is measured during at least 5 hours, preferably at least 10, 20, 30 hours. Methods for measuring fungal growth are well known from the skilled artisan. Examples of such methods include, but are not limited to, photometry, such as, for example, spectrophotometric methods; or nephelometry, such as, for example, laser nephelometry as described in Joubert et al (Biotechniques, 2010, 48:399-404). Growth inhibition is measured by comparing the Area Under Curves (AUC) of treated samples and of untreated controls.
The potentiating effect of chelerythrin is measured in a suspension of conidia treated with a plant defense molecule, camalexin, which is present at a non-fungicidal amount as determined hereinabove. Said non-fungicidal amount is consistent with the amount of camalexin produced by an infected plant organ.
Alternaria brassicicola growth was measured as described hereinabove.
A non-fungicidal amount of chelerythrin (as determined in Example 1a) and/or a non-fungicidal amount of camalexin (as determined in Example 1b) or 10 μL of DMSO are added per well, and growth curves were drawn (FIG. 3).
In the Table 5 below are shown compounds (column 1) having a potentiating effect of a plant defense molecule (column 2) for the inhibition of a pathogenic fungus (column 3). The type of the potentiating agent in this particular situation is given in column 4 (homologous or heterologous). Triads were identified according to Test B.

In assay [2] the test system is Alternaria brassicicola. Nature of the assay: Test A: growth of Alternaria brassicicola conidia followed by nephelometry, to find the non-fungicidal amount. As for the experimental part:
(§2) Suspensions of fungal conidia (starting material being for example 10^5 conidia/mL) are cultured in liquid medium, such as, for example, 300 μL of PBD medium, on microplate wells at 25° C. with shaking at 175 rpm for 5 minutes every 10 minutes. Increasing concentrations of the tested product are added on wells, and fungal growth is measured, during at least 5 hours, preferably at least 10, 20, 30 hours. Methods for measuring fungal growth are well known from the skilled artisan. Examples of such methods include, but are not limited to, photometry, such as, for example, spectrophotometric methods; or nephelometry, such as, for example, laser nephelometry as described in Joubert et al (Biotechniques, 2010, 48:399-404). Growth inhibition is measured by comparing the Area Under Curves (AUC) of treated samples and of untreated controls. Test A is carried out in Example 1.
Alternaria brassicicola strains were cultivated at 24° C. on potato dextrose (PD) medium (Cat. No. 213200; Becton Dickinson, USA).
(§3) For inoculum preparation, conidia were collected from 8-days-old solid cultures by adding PD broth followed by gentle scraping of the agar plates. They were counted in a Thoma's chamber and the conidial suspensions were diluted to the concentration of 10^5 conidia/mL.
Growth was automatically recorded for at least 30 hours at 25° C. using a nephelometric reader (NEPHELOstar Galaxy, BMG Labtech, Germany) equipped with a 635-nm laser as radiation source. During incubation, the 96-well plates were subjected to shaking at 175 rpm for 5 minutes every 10 minutes. Measurements were done every hour with a gain value of 90 and a percentage of the maximum value of 20%. Each well was measured for 0.1 second with a laser beam of 2.5 mm.
Chelerythrin (25 μM or 50 μM, test wells) or 10 μL of DMSO (chelerythrin solvent, control wells) were added on wells, and growth curves were drawn (FIG. 1).
Camalexin (10, 20, 40 or 60 μM, test wells) or 10 μL of DMSO (chelerythrin solvent, control wells) were added on wells, and growth curves were drawn (FIG. 2).

For a further assay, the system named is Botrytis cinerea. The experiment in a line: Test B: potentiating effect with a plant defense molecule on Botrytis cinerea. As for the experimental part:
as §1, with “controls. […]” for “controls.”

The subject of assay [3] is Alternaria dauci. The experiment in a line: Test B: potentiating effect with a plant defense molecule on growth of Alternaria dauci. The note with it: plant defense molecule 6-methoxymellein. The protocol:
as §1, with “Examples of such methods include, but are not limited to, photometry, such as, for example, spectrophotometric methods; or nephelometry, such as, for example, laser nephelometry as described in Joubert et al (Biotechniques, 2010, 48:399-404).” left out, “controls. […]” for “controls.”
Following the aforementioned growth inhibition protocol, the following treatments are assessed: • 6-methoxymellein 125 μM, • 6-methoxymellein 100 μM, • 6-methoxymellein 125 μM and M. cordata extract (10 μM of Sanguinarine), • 6-methoxymellein 100 μM and M. cordata extract (10 μM of Sanguinarine).

The subject of assay [4] is Alternaria dauci. Nature of the assay: Growth inhibition of Alternaria dauci (protocol of Example 1), non-fungicidal amount. As for the experimental part: as §2, with “Examples of such methods include, but are not limited to, photometry, such as, for example, spectrophotometric methods; or nephelometry, such as, for example, laser nephelometry as described in Joubert et al (Biotechniques, 2010, 48:399-404).” left out, “Test A is carried out in Example 1.” left out
as §3
Growth was automatically recorded for at least 30 hours at 25° C. using a nephelometric reader (NEPHELOstar Galaxy, BMG Labtech, Germany) equipped with a 635-nm laser as radiation source. […] Each well was measured for 0.1 second with a laser beam of 2.5 mm.
The non-fungicidal amount of the sanguinarine contained in M. cordata extract against A. dauci strain was determined as 12 μM or 4 ppm according to the protocol described in Example 1. […]

Setting [5] is: plant defense molecule Resveratrol.
Where [6] appears, read: plant defense molecule Brassinin.
Setting [7] is: plant defense molecule Camalexin.

Take `CCOc1cc2c(OCC)cc3c4cc(OC)c(OC)cc4cnc3c2cc1OC` [Compound 3]: the “Type of potentiating agent (compound having a potentiating effect of the plant defense molecule)” value (from here on “Type of potentiating agent”) in the assay on Alternaria brassicicola [1] (setting [5]) was “Heterologous”.
On to `c1ccc2c(-c3nccs3)c[nH]c2c1` [camalexin, reference compound], for which the “inhibition of Alternaria brassicicola growth” value with Alternaria brassicicola [2] (10 μM camalexin) and in the assay with Alternaria brassicicola [2] (20 μM camalexin) was no more than 20% throughout.
On to `CCOc1cc2c3cc(OC)c(OC)cc3cnc2c2cc(OC)c(OC)cc12` [Compound 1], for which the “Type of potentiating agent” value in the assay on Alternaria brassicicola [1] (setting [5]) is reported as “Heterologous”.
For the molecule `COc1cc2c[n+](C)c3c4cc(OC)c(OC)cc4c(OCc4ccccc4)cc3c2cc1OC` [Compound 4], the “Type of potentiating agent” value is “Homologous” in the assay with Alternaria brassicicola [1] (setting [6]) and “Heterologous” in the assay on Alternaria brassicicola [1] (setting [5]).
Regarding `CCOc1cc2c3cc(OC)c(OC)cc3c[n+](C)c2c2cc(OC)c(OC)cc12` [Compound 2], the “Type of potentiating agent” value with Botrytis cinerea (setting [6]), in the assay with Botrytis cinerea (setting [7]), in the assay with Alternaria brassicicola [1] (setting [6]) and in the assay on Alternaria dauci [3] was “Homologous” in each case.
As to `COc1cc2c(OC)cc3c4cc(OC)c(OC)cc4c(=O)n(C)c3c2cc1OC` [Compound 5], the “Type of potentiating agent” value in the assay on Alternaria brassicicola [1] (setting [6]) is reported as “Homologous”; with Alternaria brassicicola [1] (setting [5]), “Heterologous”.
As to `c1c2c(cc3c1OCO3)-c1cc3ccc4c(c3c[n+]1CC2)OCO4` [Coptisin], the “Type of potentiating agent” value in the assay on Alternaria brassicicola [1] (setting [6]) and with Alternaria brassicicola [1] (setting [7]) was “Homologous” each time.
On to `COc1cc(O)c2c(c1)C[C@@H](C)OC2=O` [6-methoxymellein], for which the “growth inhibition of Alternaria dauci” value with Alternaria dauci [4] (6-methoxymellein 100 μM) and in the assay with Alternaria dauci [4] (6-methoxymellein 125 μM) was “did not inhibit” in each case.
